Measurements reported in US5145954A, “Derivatives of alphaphenylacrylic acid and their use in agriculture” (Imperial Chemical Industries PLC, priority 1986, dated 1992).

Assays:
Type in all cases: in vivo
Puccinia recondita = assay: foliar fungal disease test on plants, Puccinia recondita (wheat); details: 100 ppm foliar spray plus root drench ca. 40 ppm a.i./dry soil; protectant
Erysiphe graminis = assay: foliar fungal disease test on plants, Erysiphe graminis (barley); details: 100 ppm foliar spray plus root drench ca. 40 ppm a.i./dry soil; inoculated 24 hours before treatment
Venturia inaequalis = assay: foliar fungal disease test on plants, Venturia inaequalis (apple); details: 100 ppm foliar spray plus root drench ca. 40 ppm a.i./dry soil; protectant
Pyricularia oryzae = details: 100 ppm foliar spray plus root drench ca. 40 ppm a.i./dry soil; protectant
Cercospora arachidicola = assay: foliar fungal disease test on plants, Cercospora arachidicola (peanut); details: 100 ppm foliar spray plus root drench ca. 40 ppm a.i./dry soil; protectant
Plasmopara viticola = assay: foliar fungal disease test on plants, Plasmopara viticola (vine); details: 100 ppm foliar spray plus root drench ca. 40 ppm a.i./dry soil; protectant
Wheat = assay: whole plant screen for plant growth regulating activity, wheat; details: 4000 ppm (4 kg/ha), after 2-6 weeks
Method: (§1) These compounds were tested on a whole plant screen for plant growth regulating activity against six species of plant. The plant species used in this screen are presented in Table VIII with the leaf stage at which they were sprayed.
(§2) A formulation of each chemical was applied at 4000 ppm (4 kg/ha in a 1000 1/ha field volume) using a tracksprayer and a SS8004E (Teejet) nozzle. Additional tests were done on tomatoes at 2000 and 500 ppm.
(§3) After spraying, the plants were grown in a glasshouse with 25° C. day/22° C. night temperatures. The exception to this were the temperate cereals, wheat and barley which were grown in 13°-16° C. day/11°-13° C. night temperatures. Supplementary lighting was supplied when necessary to provide an average photoperiod of 16 hours (14 hours minimum).
(§4) After 2-6 weeks in the glasshouse, depending on species and time of year, the plants were visually assessed for morphological characteristics against a control plant sprayed with a blank formulation.
Wheat WW Timmo 1-1.5 leaves

Tomato = assay: whole plant screen for plant growth regulating activity, tomato; design: key to greening effect, TO* / greening effect, TO^+ / apical damage, TO* / tillering or side shooting, TO* / apical damage, TO^+ / tillering or side shooting, TO^+: Greening effect; Apical damage; Tillering or side shooting; details: after 2-6 weeks
Method: as §1, §2, §3, §4
To- TO Ailsa 2-21/2 leaves

Rice = assay: whole plant screen for plant growth regulating activity, rice; details: 4000 ppm (4 kg/ha), after 2-6 weeks
Method: as §1, §2, §3, §4
Rice RC Ishikari 2-21/2 leaves

Maize = assay: whole plant screen for plant growth regulating activity, maize; design: key: Greening effect; Apical damage; Tillering or side shooting; details: 4000 ppm (4 kg/ha), after 2-6 weeks
Method: as §1, §2, §3, §4

[1] = tested on: Tetranychus urticae (spider mites - adult); assay: insecticidal test TUa, spider mites adult, contact; details: 500 ppm, French bean leaf, duration 3
Method: (§5) The activity of the compound was determined using a variety of insect, mite and nematode pests. The compound was used in the form of liquid preparations containing from 100 to 500 parts per million (ppm) by weight of the compound. The preparations were made by dissolving the compound in acetone and diluting the solutions with water containing 0.1% by weight of a wetting agent sold under the trade name "SYNPERONIC" NX until the liquid preparations contained the required concentration of the product. "SYNPERONIC" is a Registered Trade Mark.
(§6) The test procedure adopted with regard to each pest was basically the same and comprised supporting a number of the pests on a medium which was usually a host plant or a foodstuff on which the pests feed, and treating either or both the pests and the medium with the preparations. The mortality of the pests was then assessed at periods usually varying from one to seven days after the treatment. […]

[2] = tested on: Tetranychus urticae (spider mites - ova); assay: insecticidal test TUe, spider mites ova, contact; details: 500 ppm, French bean leaf, duration 6
Method: as §5, §6

Myzus persicae = assay: insecticidal test MP, aphids, contact; details: 500 ppm, Chinese cabbage leaf, duration 3
Method: as §5, §6

Nilaparvata lugens = assay: insecticidal test NL, brown plant hopper nymphs, contact; details: 500 ppm, rice plant, duration 3
Method: as §5, §6

Musca domestica [3] = assay: insecticidal test MD, houseflies adults, contact; details: 500 ppm, cotton wool/sugar, duration 1
Method: as §5, §6

Blattella germanica = assay: insecticidal test BG, cockroach nymphs, residual; details: 500 ppm, plastic pot, duration 3
Method: as §5, §6

Heliothis virescens = assay: insecticidal test HV, tobacco budworm larvae, residual; details: 500 ppm, cotton leaf, duration 3
Method: as §5, §6

Spodoptera exigua = assay: insecticidal test SP, lesser army worm larvae, residual; details: 500 ppm, cotton leaf, duration 3
Method: as §5, §6

Diabrotica balteata = assay: insecticidal test DB, rootworm larvae, residual; details: 500 ppm, filter paper/maize seed, duration 3
Method: as §5, §6

Meloidogyne incognita = assay: nematode test MI, tomato root knot eelworm larvae, semi in-vitro, residual; details: 125 ppm, duration 7
Method: as §5, §6

Musca domestica [4] = assay: whole plant or invertebrate
Method: A sample of compound 9 was diluted in 2 mls acetone and made up to a 2000 ppm solution with 0.1% aqueous synperonic solution. The solution (1 ml) was then sprayed directly onto twenty mixed sex houseflies held in a drinking cup. Immediately after spraying the cups were inverted and left to dry. An assessment of knockdown was made when the cups were righted 15 minutes later. The flies were then provided with a 10% sucrose solution on a cotton wool pad, and held for 48 hours in a holding room conditioned at 25° C. and 65% relative humidity before a mortality assessment was made.

| Structure (SMILES) | disease control grade, PUCCINIA RECONDITA (Wheat) (Puccinia recondita) | disease control grade, ERYSIPHE GRAMINIS (Barley) (Erysiphe graminis) | disease control grade, VENTURIA INAEQUALIS (Apple) (Venturia inaequalis) | disease control grade, P[…] (Rice) (Pyricularia oryzae) | disease control grade, CERCOSPORA ARACHIDICOLA (Peanut) (Cercospora arachidicola) | disease control grade, PLASMOPARA VITICOLA (Vine) (Plasmopara viticola) | greening effect, TO^+ (Tomato; 500 ppm) | retardation, TO^+ (Tomato; 500 ppm) | retardation, TO* (Tomato; 2000 ppm) | further results |
| --- | --- | --- | --- | --- | --- | --- | --- | --- | --- | --- |
| COC(=O)/C(=C/SC)c1ccccc1Oc1ccccc1 [1 of Table II] | 4 | 3 (trace - 5% of disease on untreated plants) | 4 | 2 (6-25% of disease on untreated plants) | 0 (60-100% of disease on untreated plants) | 4 | G | 1 (10-30%) | 1 (10-30%) | retardation, WW (Wheat): 1 (10-30%) |
| COC(=O)/C(=C/SC)c1ccccc1 [1 of Table I] | 0 (60-100% of disease on untreated plants) | 0 (60-100% of disease on untreated plants) | 0 (60-100% of disease on untreated plants) | 1 (26-59% of disease on untreated plants) | 0 (60-100% of disease on untreated plants) | 0 (60-100% of disease on untreated plants) | – | 1 (10-30%) | 1 (10-30%) | retardation, RC (Rice): 2 (21-60%) |
| COC(=O)/C(=C\SC)c1ccccc1 [2 of Table I] | 0 (60-100% of disease on untreated plants) | 0 (60-100% of disease on untreated plants) | 0 (60-100% of disease on untreated plants) | 0 (60-100% of disease on untreated plants) | 0 (60-100% of disease on untreated plants) | 1 (26-59% of disease on untreated plants) | G | 2 (21-60%) | 1 (10-30%) | retardation, RC (Rice): 1 (10-30%); greening effect, TO* (Tomato; 2000 ppm): G |
| COC(=O)/C(=C/SC)c1ccccc1/C=C/c1ccccc1 [9 of Table I] | 3 (trace - 5% of disease on untreated plants) | 0 (60-100% of disease on untreated plants) | 4 | 4 | 1 (26-59% of disease on untreated plants) | 0 (60-100% of disease on untreated plants) | G | – | – | apical damage, TO^+ (Tomato; 500 ppm): A; tillering or side shooting, TO^+ (Tomato; 500 ppm): T; apical damage, TO* (Tomato; 2000 ppm): A; greening effect, TO* (Tomato; 2000 ppm): G; tillering or side shooting, TO* (Tomato; 2000 ppm): T |
| COC(=O)/C(=C\SC)c1ccccc1/C=C/c1ccccc1 [10 of Table I] | 2 (6-25% of disease on untreated plants) | 0 (60-100% of disease on untreated plants) | 4 | 3 (trace - 5% of disease on untreated plants) | 4 | 4 | – | – | – | – |
| COC(=O)/C(=C/SC)c1ccccc1CCc1ccc(F)cc1 [96 of Table I] | 0 (60-100% of disease on untreated plants) | 0 (60-100% of disease on untreated plants) | 3 (trace - 5% of disease on untreated plants) | 0 (60-100% of disease on untreated plants) | 0 (60-100% of disease on untreated plants) | 0 (60-100% of disease on untreated plants) | G | – | 1 (10-30%) | apical damage, MZ (Maize): A; greening effect, MZ (Maize): G |
| COC(=O)/C(=C/SC)c1ccccc1/C=C/c1ccccc1 [Compound 9 of Table I] | – | – | – | – | – | – | – | – | – | grading of mortality, TUA [1]: 0 (less than 50% mortality); grading of mortality, TUE [2]: 0 (less than 50% mortality); grading of mortality, MP (Myzus persicae): 0 (less than 50% mortality); grading of mortality, NL (Nilaparvata lugens): 0 (less than 50% mortality); grading of mortality, MD (Musca domestica [3]): 5 (50-79% mortality); grading of mortality, BG (Blattella germanica): 0 (less than 50% mortality); grading of mortality, HV (Heliothis virescens): 0 (less than 50% mortality); grading of mortality, SP (Spodoptera exigua): 0 (less than 50% mortality); grading of mortality, DB (Diabrotica balteata): 5 (50-79% mortality); grading of root knot reduction, MI* (Meloidogyne incognita): 9 (70-100% root knot reduction as compared to an untreated plant for Meloidogyne incognita); knockdown (Musca domestica [4]; 1 ml of 2000 ppm solution sprayed on twenty houseflies, assessed 15 minutes later): 88%; mortality at 2000 ppm (Musca domestica [4]; Musca domestica, topical, 48 h, read-out: kill): 15% |
